According to PubChem BioAssay (NCI):
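Protocol summary: plate cells (96-well), add compound at 5 concentrations, incubate 48 h, interpolate endpoints linearly. TGI marks complete inhibition of growth.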

What was measured:
Assay in all cases: NCI tumour cell line growth inhibition, 48 h
U251 CNS = system: U251 CNS
RPMI-8226 leukemia = system: RPMI-8226 leukemia
SK-MEL-2 melanoma = system: SK-MEL-2 melanoma
SF-268 CNS = system: SF-268 CNS
SR leukemia = system: SR leukemia
NCI-H522 lung = system: NCI-H522 lung
HOP-92 NSCLC = system: HOP-92 NSCLC
OVCAR-8 ovarian = system: OVCAR-8 ovarian
OVCAR-3 ovarian = system: OVCAR-3 ovarian
MOLT-4 leukemia = system: MOLT-4 leukemia
UACC-62 melanoma = system: UACC-62 melanoma
LOX IMVI melanoma = system: LOX IMVI melanoma
LXFL 529 NSCLC = system: LXFL 529 NSCLC
KM12 colon = system: KM12 colon
NCI-H23 lung = system: NCI-H23 lung
TK-10 renal = system: TK-10 renal
K-562 leukemia = system: K-562 leukemia
COLO 205 colon = system: COLO 205 colon
KM20L2 colon = system: KM20L2 colon
786-0 renal = system: 786-0 renal
NCI-H460 lung = system: NCI-H460 lung
SNB-75 CNS = system: SNB-75 CNS
DLD-1 colon = system: DLD-1 colon
CCRF-CEM leukemia = system: CCRF-CEM leukemia
EKVX NSCLC = system: EKVX NSCLC
HT29 colon = system: HT29 colon
MALME-3M melanoma = system: MALME-3M melanoma
SNB-19 CNS = system: SNB-19 CNS
ACHN renal = system: ACHN renal
M19-MEL melanoma = system: M19-MEL melanoma
UACC-257 melanoma = system: UACC-257 melanoma
SNB-78 CNS = system: SNB-78 CNS
RXF-631 renal = system: RXF-631 renal
DMS 273 small cell lung = system: DMS 273 small cell lung
SN12C renal = system: SN12C renal
SK-MEL-28 melanoma = system: SK-MEL-28 melanoma
OVCAR-4 ovarian = system: OVCAR-4 ovarian
CAKI-1 renal = system: CAKI-1 renal
SF-539 CNS = system: SF-539 CNS
XF 498 CNS = system: XF 498 CNS
OVCAR-5 ovarian = system: OVCAR-5 ovarian
SK-MEL-5 melanoma = system: SK-MEL-5 melanoma
HOP-62 NSCLC = system: HOP-62 NSCLC
IGROV1 ovarian = system: IGROV1 ovarian
HCC-2998 colon = system: HCC-2998 colon
RXF 393 renal = system: RXF 393 renal
HOP-18 NSCLC = system: HOP-18 NSCLC
DMS 114 small cell lung = system: DMS 114 small cell lung
SW-620 colon = system: SW-620 colon
HL-60(TB) leukemia = system: HL-60(TB) leukemia
A549 NSCLC = system: A549 NSCLC
UO-31 renal = system: UO-31 renal
SK-OV-3 ovarian = system: SK-OV-3 ovarian
HCT-116 colon = system: HCT-116 colon
NCI-H226 lung = system: NCI-H226 lung
SF-295 CNS = system: SF-295 CNS
M14 melanoma = system: M14 melanoma
A498 renal = system: A498 renal
HCT-15 colon = system: HCT-15 colon

Measured: TGI

COc1ccccc1NC(=O)CC(=O)n1nc(-c2ccccc2)c(N=Nc2ccccc2[N+](=O)[O-])c1-c1ccccc1
not listed: A498 renal | HCT-15 colon
> 100 µM: all other assays above

O=C(O)/C(=C/c1ccccc1[N+](=O)[O-])c1cccs1
not listed: HOP-92 NSCLC | CCRF-CEM leukemia | MALME-3M melanoma | RXF 393 renal | DMS 114 small cell lung
> 100 µM: all other assays above
